Literature values as cited in patent US20100172972A1, “ENTERIC COATED PHARMACEUTICAL COMPOSITIONS” (priority 2007, published 2010).
Where a name gives a salt, the structure may show the parent alone.

Columns and labels:
[1] = not given; remark: listed apart in the source

Structure (SMILES) | drug in the dosage hydrolyzed to 1-naphthol (pH 1.0) [%] | drug in the dosage degrades to 1-naphthol (pH 2.0, in one hour) [%] | time for 10% degradation (pH 4.0) | solubility in water [1]
CNCC[C@H](Oc1cccc2ccccc12)c1cccs1 [Duloxetine hydrochloride] | 50 | 10 | up to 63 hours | –
CNCC[C@H](Oc1cccc2ccccc12)c1cccs1 [Duloxetine] | – | – | – | slightly soluble in water
